Experimental data as given in patent US8420696B2, “Use of low-dose ladostigil for neuroprotection” (priority 2005, dated 2013).
Where “and” joins values, the source holds several entries; their conditions need not be identical. Equal values may be shown once. Entries after “also recorded” stand apart in the source; their conditions may differ.

Key:
[1] = biological target: T1, MAO-B (Rattus norvegicus, UniProt P19643); test: Example 2: MAO-B activity in homogenates of striatum; type: in vivo, rats; settings: chronic 1 mg/kg
T1 construct: from tissue; host or cells: striatum homogenate of dosed Sprague-Dawley rats
T1 sequence (P19643 1-520): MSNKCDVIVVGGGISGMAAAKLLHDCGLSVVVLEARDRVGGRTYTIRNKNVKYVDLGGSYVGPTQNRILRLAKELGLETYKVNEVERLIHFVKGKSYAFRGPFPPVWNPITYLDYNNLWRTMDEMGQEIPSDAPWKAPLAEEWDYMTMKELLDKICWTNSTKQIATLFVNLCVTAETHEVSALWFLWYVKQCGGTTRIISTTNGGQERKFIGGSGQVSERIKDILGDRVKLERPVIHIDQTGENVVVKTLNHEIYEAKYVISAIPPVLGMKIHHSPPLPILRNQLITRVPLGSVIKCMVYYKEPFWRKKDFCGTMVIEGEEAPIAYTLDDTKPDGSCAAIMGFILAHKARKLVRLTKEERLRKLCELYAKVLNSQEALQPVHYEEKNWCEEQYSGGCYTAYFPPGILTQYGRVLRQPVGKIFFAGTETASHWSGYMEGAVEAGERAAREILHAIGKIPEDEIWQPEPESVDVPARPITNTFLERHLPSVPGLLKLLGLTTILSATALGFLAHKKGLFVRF
Protocol: The effect of chronic ladostigil treatment on ChE activity in the cortex and hippocampus of rats was determined one week after icv STZ in 12 rats (3 treated with water and 9 with ladostigil). The effect of acute treatment with ladostigil 1 or 17 mg/kg was determined 2 hrs after drug administration. […] The brain was rapidly removed, washed with saline on ice and the cortex, hippocampus and striatum dissected out, quickly weighed and stored at −70° C. until assay. Total ChE activity in the cortex and hippocampus was measured as described in Wang et al., Gender differences in the effect of rivastigmine on brain cholinesterase activity and cognitive function in rats, Neuropharmacology (2000) 39:497-506, using the spectrophotometric method of Ellman et al., A new and rapid colorimetric determination of acetylcholinesterase activity, Biochem. Pharmacol. (1961) 7:88-95 with acetylthiocholine (Sigma Ltd) as a substrate using homogenate of 100 mg tissue in 1 ml phosphate buffer. […] MAO A and B activity was measured in homogenates of striatum as described in Weinstock et al., Limited potentiation of blood pressure response to oral tyramine by brain-selective monoamine oxidase A-B inhibitor, TV-3326 in conscious rabbits, Neuropharmacology (2002) 43:999-1005.

[2] = test system: rats injected icv with STZ (spatial memory); test: Place recognition test after icv STZ; type: in vivo, Sprague-Dawley rats
Protocol: Male Sprague-Dawley rats (63) weighing 320-340 g, aged 4 months, were anesthetized by an intraperitoneal injection of Equithesin 0.3 ml/kg. STZ (0.5 mg) dissolved in 2 μl artificial cerebrospinal fluid (CSF) was injected into each lateral ventricle of 45 rats. The stereotaxic co-ordinates for icv injection were: 0.9 mm posterior, 1.8 mm lateral and 3.8 mm ventral from the bregma level. Control rats (18) received a bilateral injection of 2 μl artificial CSF. STZ-injected rats (25) were given ladostigil (1 mg/kg of the hemitartrate salt/day) orally in a volume of (1 ml/kg) from one week before, until 1 or 8 weeks after icv STZ. The remaining 20 rats received 1 ml/kg water. The rats were housed two per cage with free access to food and water until the behavioral, enzymatic and cytochemical measurements were completed.
Episodic memory in the object recognition test was still intact 2 but not 4 weeks after a single icv STZ injection (Table 3). […] The object recognition test measured non-spatial working memory with characteristics of episodic memory that is primarily affected in senile dementia (Bartolini et al., Aniracetam restores object recognition impaired by age, scopolamine, and nucleus basalis lesions, Pharmacol. Biochem. Behav. (1996) 53:277-83). […] Two identical objects were placed in the arena and the time taken by the rats to explore each object during a period of 3 min was recorded. […]

[3] = test system: aged rats (spatial learning); test: Example 3: spatial learning of aged rats in Morris water maze; type: in vivo, Wistar rats; settings: 1 mg/kg/day in drinking fluid for four months from age 16 months
Protocol: Experiments were performed in 30 male rats of the Wistar strain. […] The rats were housed in pairs at an ambient temperature of 21° C. They were weighed once weekly and their fluid intake measured daily for two weeks and then twice weekly for the remaining 4 months. Ten of the rats were started on ladostigil 1 mg/kg/day in the drinking fluid when aged 16 months and given the drug for four months. The remaining 10 rats of the same age were given regular drinking water. At the end of the four months spatial memory of these 20 rats and of another 10 aged 3 months was tested in the Morris water maze as previously described (Shoham et al, 2006).

[4] = test system: ChE; test: Example 2: total ChE activity in cortex, hippocampus and plasma after ladostigil treatment; type: in vivo, rats
Protocol: The effect of chronic ladostigil treatment on ChE activity in the cortex and hippocampus of rats was determined one week after icv STZ in 12 rats (3 treated with water and 9 with ladostigil). The effect of acute treatment with ladostigil 1 or 17 mg/kg was determined 2 hrs after drug administration. […] The brain was rapidly removed, washed with saline on ice and the cortex, hippocampus and striatum dissected out, quickly weighed and stored at −70° C. until assay. Total ChE activity in the cortex and hippocampus was measured as described in Wang et al., Gender differences in the effect of rivastigmine on brain cholinesterase activity and cognitive function in rats, Neuropharmacology (2000) 39:497-506, using the spectrophotometric method of Ellman et al., A new and rapid colorimetric determination of acetylcholinesterase activity, Biochem. Pharmacol. (1961) 7:88-95 with acetylthiocholine (Sigma Ltd) as a substrate using homogenate of 100 mg tissue in 1 ml phosphate buffer. To determine only butyrylcholinesterase (BuChE) activity the amounts of tissue/ml of buffer were increased 3-fold and butyrylthiocholine (Sigma Ltd) was used as a substrate. MAO A and B activity was measured in homogenates of striatum as described in Weinstock et al., Limited potentiation of blood pressure response to oral tyramine by brain-selective monoamine oxidase A-B inhibitor, TV-3326 in conscious rabbits, Neuropharmacology (2002) 43:999-1005.

C#CCN[C@@H]1CCc2ccc(OC(=O)N(C)CC)cc21 [ladostigil, R(+)-6-(N-methyl,N-ethyl-carbamoyloxy)-N′-propargyl-1-aminoindan]
MAO-B (%) inhibition ([1]; 60 min): 11.3 ± 1.4 % | MAO-B (%) inhibition ([1]; 120 min (2 hrs)): 15% | Discrimination index, Place ([2]; STZ (4 weeks) + ladostigil 1 mg/kg chronic, mean ± s.e.m.): 0.211 ± 0.07 | Discrimination in place recognition test ([2]; icv STZ with chronic ladostigil, significantly >0, P<0.05): significant discrimination index | Difference in spatial learning between young and old rats (Morris water maze) [3]: substantially abolished | ChE (%) inhibition ([4]; Cortex, 60 min after last dose, chronic 1 mg/kg, seven days after icv STZ): 16.1 ± 4.7 % | ChE (%) inhibition ([4]; Cortex, 120 min after last dose, chronic 1 mg/kg, seven days after icv STZ): 23.6 ± 3.1 % | ChE (%) inhibition ([4]; Hippocampus, 60 min, chronic 1 mg/kg): 4.9 ± 2.6% | ChE (%) inhibition ([4]; Hippocampus, 120 min, chronic 1 mg/kg): 5.9 ± 3.2% | ChE (%) inhibition ([4]; Plasma, 120 min, chronic 1 mg/kg): 20 ± 2% | ChE inhibition in the hippocampus or plasma ([4]; acute administration 1 mg/kg): not in the hippocampus or plasma | ChE inhibition in both brain regions and in plasma ([4]; acute administration 17 mg/kg, 17 mg/kg): 40-42% and 40% | Inhibition of ChE activity in the plasma ([4]; chronic 1 mg/kg): 20% | Inhibition of ChE in the hippocampus ([4]; chronic 1 mg/kg): no ChE inhibition occurred; also recorded: no significant AChE inhibition occurred | Inhibition of total ChE activity in the cortex ([4]; chronic 1 mg/kg, seven days after icv STZ, 1 or 2 hrs after the last dose): 24% and 28% and ~20%
